Source: patent publication US20260256922A1, “PRODRUGS USEFUL FOR REDUCING ANTHRACYCLINE CARDIOTOXICITY” (WAKE FOREST UNIVERSITY HEALTH SCIENCES, priority 2022, published 2026)

Tests used:
mitochondrial ROS = experiment: Mitochondrial ROS in cardiomyoblasts; settings: compared with DOX
[1] = Methylene blue assay of H2S release; type: physicochemical; settings: for H2S released: c1 40 μM
Method: FIG. 3. Methylene blue assay depicting the time-dependent release of H2S from c1 (40 μM) while in the presence of H2O2 (40 μM) and carbonic anhydrase (CA). Plotted as the mean±SEM from three independent experiments. Data were collected in the presence (circles) or absence (squares) of H2O2.
H2S release from c1. We confirmed the time-dependent liberation of H2S using a methylene blue assay^46 and measuring the resulting absorbance at 670 nm after c1 exposure to H2O2 (FIG. 3, circle). Using a calibration curve generated with Na2S, we determined that c1 (40 μM) was able to release more than 16 μM H2S while in the presence of both H2O2 ([…]) and carbonic anhydrase (CA). […] As a control, the same assay was also run in the absence of CA (data not shown). Under these conditions, c1 exposure to H2O2 yielded small amounts of H2S ([…]). This is presumably due to isocyanate formation and the direct release of H2S from the breakdown of 4.
With carbonic anhydrase: Six separate vials were each filled with 150 μL of freshly degassed PBS (pH 7.4) containing Zn(OAc)2 (2 mM), carbonic anhydrase (0.1 mg/mL), and DOX (80 μM). Next, 150 μL of Na2S stock solution in freshly degassed PBS (pH 7.4), and at differing concentrations (6.25, 12.5, 25.0, 50.0, 100 and 200.0 μM), was added to each vial to give a final volume of 300 μL and a final concentration of 3.125, 6.25, 12.5, 25.0, 50.0, and 100.0 µM Na2S. […] The MB solution was transferred to a 1.0 mL UV cuvette and the absorbance at 670 nm was recorded.
Without carbonic anhydrase: Six separate vials were each filled with 150 μL of freshly degassed PBS (pH 7.4) containing Zn(OAc)2 (2 mM) and DOX (80 μM). […] The MB solution was transferred to a 1.0 mL UV cuvette and the absorbance at 670 nm was recorded. […]
With carbonic anhydrase: To a 20 mL scintillation vial containing 9770 μL of freshly degassed PBS (pH 7.4) was added stock solutions of carbonic anhydrase (50 μL), H2O2 (40 μL), Zn(OAc)2 (100 μL), and c1 (or c2) (40 μL). […] After reacting for 30 min in the dark, absorbance measurements were recorded at 670 nm. […]

[2] = Selectivity of DOX release from c1 towards biological analytes (LCMS); type: physicochemical; settings: 80 min
Method: FIG. 2. Percentage of released DOX from c1 in response to various biological analytes during an 80 min incubation period at room temperature: (1) ammonium bicarbonate buffer (0.1 M, pH 7.5), (2) 10 μM H2O2, (3) 100 μM cysteine, (4) 100 μM homocysteine, (5) 1 mM glutathione, (6) 10 μM glutathione disulfide, (7) 10 µM sodium nitrite, (8) 10 μM sodium hypochlorite, (9) 10 μM superoxide, (10) 10 μM peroxynitrite. A calibration curve was used to determine the concentration of free DOX in response to each analyte. Plotted as the mean±SEM from three independent experiments.
Selectivity of c1. […] After a reaction time of 80 min, an aliquot was removed and analyzed by LCMS. […]
Analyte stock solutions of glutathione (10 mM), oxidized glutathione (10 mM), homocysteine (10 mM), L-cysteine (10 mM), sodium nitrite (NaNO2 10 mM), superoxide (KO2, 10 mM), sodium peroxynitrite (NaOONO, 10 mM), and sodium hypochlorite (NaClO, 10 mM), were prepared in ammonium bicarbonate buffer (0.1 M pH 7.4). […] After reacting for 80 min, a 1 mL (inject volume 60 μL) aliquot was removed and analyzed by LC-MS (using a C18 analytical column and eluting at 0.4 mL/min with a linear gradient (20-90% v/v) MeOH/H2O (0-2 min), followed by 90% v/v MeOH/H2O (2-19 min)). The signals in the chromatogram were recorded at 500 nm and the peak corresponding to free DOX (7.0 min) was integrated.

COc1cccc2c1C(=O)c1c(O)c3c(c(O)c1C2=O)C[C@@](O)(C(=O)CO)C[C@@H]3O[C@H]1C[C@H](NC(=S)OCc2ccc(B3OC(C)(C)C(C)(C)O3)cc2)[C@H](O)[C@H](C)O1 [c1]
mitochondrial ROS levels (mitochondrial ROS): lower levels of mitochondrial ROS | share of H2S production via COS hydrolysis facilitated by CA [1]: ~ 70% | H2S released ([1]; absence of peroxides): negligible amounts of H2S | H2S released ([1]; in presence of H2O2 and carbonic anhydrase): more than 16 μM | free DOX observed by LCMS ([2]; in the presence of H2O2 (10 μM)): significant levels of free DOX | stability (DOX release) ([2]; buffer alone, reductants (cysteine, homocysteine, glutathione), other oxidants (glutathione disulfide, sodium nitrite, sodium hypochlorite, superoxide, peroxynitrite)): relatively stable
